Series [1] addresses T1, recombinant human 5-HT5A receptor (Homo sapiens, UniProt P47898).
T1 construct: expressed in transfected cells; host or cells: HEK-EBNA (Human Embryonic Kidney-EBNA) cells, transient cDNA expression, membranes
Description: [3H]LSD radioligand binding assay, membranes of HEK-EBNA cells transiently expressing 5-HT5A receptors. Particulars: [3H]LSD approx. 1 nM, SPA beads, 120 min at room temperature; Ki from IC50 by Cheng-Prussoff equation. Here is the method: A [^3H]LSD radioligand binding assay was used to determine the affinity of the compounds for the recombinant human 5-HT5A receptor, in membranes from transiently (cDNA) expressed 5-HT5A receptors in Human Embryonic Kidney-EBNA (HEK-EBNA) cells. Assay buffer consisted of Tris (50 mM) buffer containing 1 mM EGTA, 10 mM MgCl2 (pH 7.4) and 10 μM pargyline. The binding assay was carried out in 96-well-plates in the presence of [^3H]LSD (approximately 1 nM), approximately 2 μg/well of membrane protein, and 0.5 mg of Ysi-poly-1-lysine SPA beads in a final volume of 200 μl of buffer. Non-specific binding was defined using methiothepin 2 μM. Compounds were tested at 10 concentrations. All assays were conducted in duplicate and repeated at least two times. Assay plates were incubated for 120 min at room temperature before centrifugation. Bound ligand was determined using a Packard Topcount scintillation counter. IC50 values were calculated using a non-linear curve fitting program and Ki values calculated using the Cheng-Prussoff equation.

T1 sequence (P47898 whole entry): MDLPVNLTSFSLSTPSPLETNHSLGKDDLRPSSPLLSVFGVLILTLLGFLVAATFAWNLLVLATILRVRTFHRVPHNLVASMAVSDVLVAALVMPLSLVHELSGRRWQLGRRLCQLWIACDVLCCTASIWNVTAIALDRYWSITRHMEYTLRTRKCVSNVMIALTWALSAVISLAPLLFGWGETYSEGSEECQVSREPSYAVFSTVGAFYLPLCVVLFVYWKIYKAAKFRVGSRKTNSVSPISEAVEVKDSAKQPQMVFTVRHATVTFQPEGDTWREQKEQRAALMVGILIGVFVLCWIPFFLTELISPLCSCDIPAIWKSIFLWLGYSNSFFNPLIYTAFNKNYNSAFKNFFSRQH

As for `ON=C(c1ccccc1)c1cccc2nc(N[C@@H]3CCc4ccccc43)ccc12` [Example 91, [2-((R)-Indan-1-ylamino)-quinolin-5-yl]-phenyl-methanone oxime], the melting point turned out to be 175.5 °C. Moreover, the inhibition constant (Ki) in series [1] was 1.55 nM.
`ON=C(c1ccc(Cl)cc1)c1cccc2nc(N[C@@H]3CCc4ccccc43)ccc12` [Example 92, (4-Chloro-phenyl)-[2-((R)-indan-1-ylamino)-quinolin-5-yl]-methanone oxime]: the melting point was 194 °C. Besides, in series [1], the Ki is 5.48 nM.
Compound `ON=C(c1cccc(F)c1)c1cccc2nc(N[C@@H]3CCc4ccccc43)ccc12` [Example 96, (3-Fluoro-phenyl)-[2-((R)-indan-1-ylamino)-quinolin-5-yl]-methanone oxime] showed a melting point of 179.5 °C. In series [1], the inhibitory constant (Ki) was found to be 1.22 nM.
In the case of `ON=C(c1cc(F)cc(F)c1)c1cccc2nc(N[C@@H]3CCc4ccccc43)ccc12` [Example 101, (3,5-Difluoro-phenyl)-[2-((R)-indan-1-ylamino)-quinolin-5-yl]-methanone oxime], the melting point came to 120.5 °C. Also, in series [1], the Ki amounted to 7.7 nM.
`O=C(c1cccs1)c1cccc2nc(N[C@@H]3CCc4ccccc43)ccc12` [Example 102, [2-((R)-Indan-1-ylamino)-quinolin-5-yl]-thiophen-2-yl-methanone]: the melting point stood at 176 °C. For the same compound, the Ki in series [1] was determined as 33.4 nM.
In turn, `O=C(c1ccc(CN2CCOCC2)cc1)c1cccc2nc(N[C@@H]3CCc4ccccc43)ccc12` [Example 103, [2-((R)-Indan-1-ylamino)-quinolin-5-yl]-(4-morpholin-4-ylmethyl-phenyl)-methanone] gave a melting point of 160 °C. In series [1], the Ki is 678 nM.
Take `ON=C(c1cccs1)c1cccc2nc(N[C@@H]3CCc4ccccc43)ccc12` [Example 104, [2-((R)-Indan-1-ylamino)-quinolin-5-yl]-thiophen-2-yl-methanone oxime]: the melting point was found to be 194 °C. For the same compound, in series [1], the Ki was found to be 3.64 nM.
Take `ON=C(c1ccc(CN2CCOCC2)cc1)c1cccc2nc(N[C@@H]3CCc4ccccc43)ccc12` [Example 105, [2-((R)-Indan-1-ylamino)-quinolin-5-yl]-(4-morpholin-4-ylmethyl-phenyl)-methanone oxime]: the melting point stood at 167 °C. Moreover, the Ki in series [1] was found to be 23.2 nM.
